# Measured values: patent publication US11065319B2, “Methods for diagnosing and reducing incidences of cardiac allograft rejection” (3DT Holdings, LLC, priority 2014, dated 2021)
# Values joined by “and” are separate entries in the source; they are usually repeats but may differ in a detail not shown here. Equal values may be shown once. “Also recorded” adds a separate entry of the source.
# Key:
# IgM anti-PC NAbs = assay: PC-KLH immunization of mice, serum IgM anti-PC by ELISA; type: in vivo
# Excerpt: In group 1, normal C57BL/6 mice (IgG+IgM producers) were immunized by PC-keyhole limpet hemocyanin (PC-KLH) to induce anti-PC NAb production. In group 2, IgM-deficient mice that have impaired IgM antibody production, but still have an IgG response were immunized.
# As controls for PC immunization, mice of the same genotypes were vaccinated with KLH. These procedures define the conditions of a 2×2 factorial design, as depicted in Table 1, with 2 immunization conditions (PC or KLH), and 2 mouse genotypes (normal C57BL/6 and IgM-deficient). Eight weeks after immunization, all mice were euthanized by CO2 inhalation. Mouse sera from these animals was subsequently used to conduct the two in vitro studies. Additionally, the mouse serum IgM-anti-PC was analyzed using custom ELISA. Specifically, to establish the inflammatory milieu in the mouse sera used for the in vitro experiments, the sera was analyzed for pro-inflammatory TNF-α, IFN-γ, IL-1β, IL-6, IL-12 and anti-inflammatory IL-10 IL-4, IL-13, and TGF-β cytokines (SearchLight Multiplex Assay System, Aushom Biosystems).
# [1] = test system: IgM in human heart biopsies; assay: Displacement (elution) of IgM from human heart transplant biopsies; type: binding; settings: for removal of IgM from heart biopsies by incubation: PC 50 mM, CRP 2.58 mg/ml, albumin 1 mg/ml; for vascular IgM in biopsy after incubation (immunohistochemistry): displacement experiments; for IgM anti-PC in biopsy eluates (ELISA): eluates after incubation of biopsies; for IgM in western blots of biopsy eluates: following incubation of biopsies
# Procedure: To verify if the IgM removed from the heart biopsies is PC-specific, ELISA was performed.
# One hundred and seventy-two (172) adult heart transplant patients (having a number of serial biopsies per patient in first three months post-transplant) were followed for several years and subsequently analyzed. CAV was diagnosed with serial angiographies for each patient. The percentage of microvascular IgM was quantified with double staining (IgM/CD31 or Ulex europaeus lectin). IgM and IgM anti-phosphorylcholine (PC) from biopsy eluates were determined with immunoblotting and enzyme-linked immunosorbent assays (ELISAs). Statistical analyses used univariate logistic regression, multivariate stepwise models, and Kaplan-Meier curves for different tertile groups.
# cardiac allograft = assay: Heterotopic heart transplant model of CAV with PC vaccination; type: in vivo, mice; settings: mouse model of heart transplantation
# Procedure: In addition to the mechanisms underlying MΦ differentiation and the effect of NAbs thereon, it is also important to identify what artheroprotective effect (if any) a PC vaccination may have in vivo. In an attempt to determine if experimental induction of IgM anti-PC NAbs have a beneficial effect on graft rejection and survival, experiments were conducted in an in vivo heart transplant model to measure such antibodies' affect on CAV and graft survival. Specifically, heart transplants and experimental vaccination were performed in normal mice (C57BL/6) and in IgM-deficient mice. Thereafter, IgM antibody response was measured, and a determination made as to what (if any) effect the vaccination had on graft survival.
# The study used a 2×3 factorial design to test the (a) main effect of immunization defined by 3 conditions: experimental vaccination vs. negative control (vaccination with KLH vehicle) vs. positive control (intra-peritoneal mouse polyclonal IgM); and (b) main effect of mouse genotype—normal C57BL/6 vs. IgM-deficient mice—on cardiac graft rejection (see Table 2). […]
# All mice underwent heart transplantation at 16 weeks of age, 8 weeks after initial vaccination. […] Cardiac allograft viability was thereafter assessed by daily abdominal palpation. […]
# Graft survival curves were calculated in accordance with the Kaplan-Meier method. […]
# [2] = test system: human aortic and microvascular endothelial cells; assay: Incubation of cultured endothelial cells with CRP (cell activation); type: cell-based; settings: incubation with CRP vs controls without CRP
# Excerpt: Additionally, note the absence of ICAM-1 (subpart A of FIG. 7) and NF-κB nuclear expression (subpart C of FIG. 7) in the controls that lacked CRP exposure.
compound,measurement,setting,value
"C[N+](C)(C)CCOP(=O)(O)O [PC, phosphorylcholine]",production of specific IgM anti-PC NAbs,IgM anti-PC NAbs,induced the production of specific IgM anti-PC NAbs
same,removal of IgM from heart biopsies by incubation,[1],removed IgM from the biopsies; also recorded: can be removed
same,vascular IgM in biopsy after incubation (immunohistochemistry),[1],removal of IgM; also recorded: showed biopsy removal
same,IgM anti-PC in biopsy eluates (ELISA),[1],56.67±19.96 U/ml and 56.7±20.0 U/ml
same,IgM in western blots of biopsy eluates,[1],showed IgM
same,graft survival,cardiac allograft,positive effect on graft survival
"CRP: C-reactive protein, pro-inflammatory molecule",removal of IgM from heart biopsies by incubation,[1],removed IgM from the biopsies; also recorded: can be removed
same,vascular IgM in biopsy after incubation (immunohistochemistry),[1],removal of IgM; also recorded: showed biopsy removal
same,IgM anti-PC in biopsy eluates (ELISA),[1],60.49±18.26 U/ml and 60.5±18.3 U/ml
same,IgM in western blots of biopsy eluates,[1],showed IgM
same,ICAM-1 expression,[2],increased ICAM-1 expression
same,NF-κB nuclear localization,[2],nuclear factor-kappa B (NF-κB) nuclear localization
